# Measured values as given in PubChem BioAssay AID248 (DTP/NCI, 2004).
# Several values for one entry are separate records, joined by “and”; a condition that tells them apart may be missing. Identical values can stand only once. Toxic doses and inconclusive results are not listed.
# Tested on: L1210 leukemia ip in BDF1 mice, survival T/C
# Assay: NCI In Vivo Anticancer Drug Screen. Data for tumor model L1210 Leukemia (intraperitoneal) in B6D2F1 (BDF1) mice
# Conditions: higher = longer survival
# Summary of the method: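 In this screen, tumor-bearing mice given compound are compared to those given vehicle, and their survival values are reported as a treated-to-control quotient.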
compound,measurement,setting,value
OC(C1CO1)C(O)C1CO1 (centres undefined),T/C,"endpoint: mean survival time, dose: 0.25 mg/kg/injection, schedule: Q03HX008 (ip), vehicle: saline",106 % of control
same,T/C,"endpoint: mean survival time, dose: 0.35 mg/kg/injection, schedule: Q01DX009 (ip), vehicle: saline",94 % of control
same,T/C,"endpoint: mean survival time, dose: 0.5 mg/kg/injection, schedule: Q01DX009 (ip), vehicle: saline",104 % of control
same,T/C,"endpoint: mean survival time, dose: 0.5 mg/kg/injection, schedule: Q03HX008 (ip), vehicle: saline",115 % of control
same,T/C,"endpoint: mean survival time, dose: 0.52 mg/kg/injection, schedule: Q01DX009 (ip), vehicle: saline",97 % of control
same,T/C,"endpoint: mean survival time, dose: 0.61 mg/kg/injection, schedule: Q04DX003 (ip), vehicle: saline",104 % of control
same,T/C,"endpoint: mean survival time, dose: 0.65 mg/kg/injection, schedule: Q01DX009 (ip), vehicle: water",110 % of control
same,T/C,"endpoint: mean survival time, dose: 0.96 mg/kg/injection, schedule: Q01DX001 (ip), vehicle: saline",119 % of control
same,T/C,"endpoint: mean survival time, dose: 1.0 mg/kg/injection, schedule: Q01DX009 (sc), vehicle: saline",121 % of control
same,T/C,"endpoint: mean survival time, dose: 1.0 mg/kg/injection, schedule: Q03HX016 (ip), vehicle: saline",160 % of control
same,T/C,"endpoint: mean survival time, dose: 1.0 mg/kg/injection, schedule: Q03HX024 (ip), vehicle: saline",170 % of control
same,T/C,"endpoint: mean survival time, dose: 1.0 mg/kg/injection, schedule: Q04DX003 (ip), vehicle: saline",110 % of control and 116 % of control
same,T/C,"endpoint: mean survival time, dose: 1.25 mg/kg/injection, schedule: Q04DX003 (ip), vehicle: saline",104 % of control
same,T/C,"endpoint: mean survival time, dose: 1.3 mg/kg/injection, schedule: Q01DX009 (ip), vehicle: saline",175 % of control
same,T/C,"endpoint: mean survival time, dose: 1.4 mg/kg/injection, schedule: Q01DX001 (ip), vehicle: saline",119 % of control
same,T/C,"endpoint: mean survival time, dose: 1.4 mg/kg/injection, schedule: Q01DX009 (ip), vehicle: saline",184 % of control
same,T/C,"endpoint: mean survival time, dose: 1.6 mg/kg/injection, schedule: Q01DX009 (ip), vehicle: water",102 % of control
same,T/C,"endpoint: mean survival time, dose: 1.87 mg/kg/injection, schedule: Q01DX001 (ip), vehicle: saline",110 % of control
same,T/C,"endpoint: mean survival time, dose: 2.0 mg/kg/injection, schedule: Q01DX001 (ip), vehicle: saline",116 % of control
same,T/C,"endpoint: mean survival time, dose: 2.0 mg/kg/injection, schedule: Q03HX008 (ip), vehicle: saline",227 % of control
same,T/C,"endpoint: mean survival time, dose: 2.0 mg/kg/injection, schedule: Q03HX016 (ip), vehicle: saline",218 % of control
same,T/C,"endpoint: mean survival time, dose: 2.0 mg/kg/injection, schedule: Q03HX024 (ip), vehicle: saline",105 % of control
same,T/C,"endpoint: mean survival time, dose: 2.0 mg/kg/injection, schedule: Q04DX003 (ip), vehicle: saline",123 % of control
same,T/C,"endpoint: mean survival time, dose: 2.0 mg/kg/injection, schedule: Q08DX002 (ip), vehicle: saline",113 % of control
same,T/C,"endpoint: mean survival time, dose: 2.5 mg/kg/injection, schedule: Q01DX009 (ip), vehicle: saline",118 % of control
same,T/C,"endpoint: mean survival time, dose: 2.5 mg/kg/injection, schedule: Q04DX003 (ip), vehicle: saline",105 % of control and 115 % of control
same,T/C,"endpoint: mean survival time, dose: 3.0 mg/kg/injection, schedule: Q01DX009 (ip), vehicle: saline",163 % of control and 186 % of control and 193 % of control
same,T/C,"endpoint: mean survival time, dose: 3.0 mg/kg/injection, schedule: Q01DX009 (ip), vehicle: water",224 % of control
same,T/C,"endpoint: mean survival time, dose: 3.2 mg/kg/injection, schedule: Q01DX009 (ip), vehicle: saline",120 % of control
same,T/C,"endpoint: mean survival time, dose: 3.3 mg/kg/injection, schedule: Q01DX001 (ip), vehicle: saline",154 % of control
same,T/C,"endpoint: mean survival time, dose: 3.75 mg/kg/injection, schedule: Q01DX001 (ip), vehicle: saline",118 % of control
same,T/C,"endpoint: mean survival time, dose: 4.0 mg/kg/injection, schedule: Q01DX001 (sc), vehicle: saline",115 % of control
same,T/C,"endpoint: mean survival time, dose: 4.0 mg/kg/injection, schedule: Q01DX009 (ip), vehicle: saline",160 % of control
same,T/C,"endpoint: mean survival time, dose: 4.0 mg/kg/injection, schedule: Q04DX003 (ip), vehicle: saline",168 % of control and 170 % of control and 198 % of control
same,T/C,"endpoint: mean survival time, dose: 4.0 mg/kg/injection, schedule: Q08DX002 (ip), vehicle: saline",155 % of control
same,T/C,"endpoint: mean survival time, dose: 4.6 mg/kg/injection, schedule: Q01DX001 (ip), vehicle: saline",113 % of control
same,T/C,"endpoint: mean survival time, dose: 4.6 mg/kg/injection, schedule: Q01DX009 (ip), vehicle: saline",89 % of control
same,T/C,"endpoint: mean survival time, dose: 4.6 mg/kg/injection, schedule: Q04DX003 (ip), vehicle: saline",242 % of control and 112 % of control
same,T/C,"endpoint: mean survival time, dose: 4.6 mg/kg/injection, schedule: Q08DX002 (ip), vehicle: saline",163 % of control
same,T/C,"endpoint: mean survival time, dose: 5.0 mg/kg/injection, schedule: Q01DX001 (ip), vehicle: saline",214 % of control
same,T/C,"endpoint: mean survival time, dose: 5.0 mg/kg/injection, schedule: Q01DX009 (ip), vehicle: saline",95 % of control and 204 % of control and 255 % of control
same,T/C,"endpoint: mean survival time, dose: 5.0 mg/kg/injection, schedule: Q01DX009 (ip), vehicle: water",108 % of control
same,T/C,"endpoint: mean survival time, dose: 5.0 mg/kg/injection, schedule: Q04DX003 (ip), vehicle: saline",124 % of control
same,T/C,"endpoint: mean survival time, dose: 6.7 mg/kg/injection, schedule: Q04DX003 (ip), vehicle: saline",195 % of control and 227 % of control
same,T/C,"endpoint: mean survival time, dose: 7.0 mg/kg/injection, schedule: Q01DX001 (ip), vehicle: saline",157 % of control and 240 % of control and 117 % of control
same,T/C,"endpoint: mean survival time, dose: 7.0 mg/kg/injection, schedule: Q01DX009 (ip), vehicle: saline",97 % of control and 115 % of control
same,T/C,"endpoint: mean survival time, dose: 7.0 mg/kg/injection, schedule: Q04DX003 (ip), vehicle: saline",284 % of control and 122 % of control
same,T/C,"endpoint: mean survival time, dose: 7.0 mg/kg/injection, schedule: Q08DX002 (ip), vehicle: saline",191 % of control
same,T/C,"endpoint: mean survival time, dose: 7.5 mg/kg/injection, schedule: Q01DX001 (ip), vehicle: saline",185 % of control
same,T/C,"endpoint: mean survival time, dose: 7.5 mg/kg/injection, schedule: Q01DX009 (ip), vehicle: saline",169 % of control
same,T/C,"endpoint: mean survival time, dose: 8.0 mg/kg/injection, schedule: Q01DX001 (ip), vehicle: saline",158 % of control
same,T/C,"endpoint: mean survival time, dose: 8.0 mg/kg/injection, schedule: Q01DX001 (oral), vehicle: saline",200 % of control
same,T/C,"endpoint: mean survival time, dose: 8.0 mg/kg/injection, schedule: Q04DX003 (ip), vehicle: saline",300 % of control and 304 % of control
same,T/C,"endpoint: mean survival time, dose: 8.0 mg/kg/injection, schedule: Q08DX002 (ip), vehicle: saline",193 % of control
same,T/C,"endpoint: mean survival time, dose: 10.0 mg/kg/injection, schedule: Q01DX009 (ip), vehicle: saline",88 % of control
same,T/C,"endpoint: mean survival time, dose: 10.0 mg/kg/injection, schedule: Q04DX003 (ip), vehicle: saline",404 % of control and 448 % of control and 471 % of control
same,T/C,"endpoint: mean survival time, dose: 10.6 mg/kg/injection, schedule: Q01DX001 (ip), vehicle: saline",308 % of control and 105 % of control
same,T/C,"endpoint: mean survival time, dose: 11.25 mg/kg/injection, schedule: Q01DX009 (ip), vehicle: saline",91 % of control
same,T/C,"endpoint: mean survival time, dose: 12.5 mg/kg/injection, schedule: Q01DX009 (ip), vehicle: saline",110 % of control
same,T/C,"endpoint: mean survival time, dose: 15.0 mg/kg/injection, schedule: Q04DX003 (ip), vehicle: saline",161 % of control and 172 % of control and 368 % of control
same,T/C,"endpoint: mean survival time, dose: 16.0 mg/kg/injection, schedule: Q01DX001 (ip), vehicle: saline",368 % of control
same,T/C,"endpoint: mean survival time, dose: 16.0 mg/kg/injection, schedule: Q01DX001 (sc), vehicle: saline",180 % of control
same,T/C,"endpoint: mean survival time, dose: 24.0 mg/kg/injection, schedule: Q04DX003 (ip), vehicle: saline",191 % of control
same,T/C,"endpoint: mean survival time, dose: 64.0 mg/kg/injection, schedule: Q01DX001 (ip), vehicle: saline",97 % of control
same,T/C,"endpoint: mean survival time, dose: 118.0 mg/kg/injection, schedule: Q08DX002 (ip), vehicle: saline",105 % of control
same,T/C,"endpoint: median survival time, dose: 1.0 mg/kg/injection, schedule: Q01DX009 (sc), vehicle: water",111 % of control
same,T/C,"endpoint: median survival time, dose: 2.0 mg/kg/injection, schedule: Q01DX009 (ip), vehicle: water",188 % of control
same,T/C,"endpoint: median survival time, dose: 2.0 mg/kg/injection, schedule: Q04DX003 (ip), vehicle: water",122 % of control
same,T/C,"endpoint: median survival time, dose: 2.0 mg/kg/injection, schedule: Q04DX003 (sc), vehicle: water",111 % of control
same,T/C,"endpoint: median survival time, dose: 2.5 mg/kg/injection, schedule: Q01DX001 (ip), vehicle: water",122 % of control
same,T/C,"endpoint: median survival time, dose: 4.0 mg/kg/injection, schedule: Q01DX009 (ip), vehicle: water",116 % of control
same,T/C,"endpoint: median survival time, dose: 4.0 mg/kg/injection, schedule: Q01DX009 (sc), vehicle: water",105 % of control
same,T/C,"endpoint: median survival time, dose: 4.0 mg/kg/injection, schedule: Q04DX003 (ip), vehicle: water",166 % of control
same,T/C,"endpoint: median survival time, dose: 4.0 mg/kg/injection, schedule: Q04DX003 (sc), vehicle: water",155 % of control
same,T/C,"endpoint: median survival time, dose: 8.0 mg/kg/injection, schedule: Q04DX003 (ip), vehicle: water",94 % of control
same,T/C,"endpoint: median survival time, dose: 8.0 mg/kg/injection, schedule: Q04DX003 (sc), vehicle: water",100 % of control
same,T/C,"endpoint: median survival time, dose: 10.0 mg/kg/injection, schedule: Q01DX001 (ip), vehicle: water",154 % of control
same,T/C,"endpoint: median survival time, dose: 20.0 mg/kg/injection, schedule: Q01DX001 (ip), vehicle: water",103 % of control
same,T/C,"endpoint: median survival time, dose: 40.0 mg/kg/injection, schedule: Q01DX001 (ip), vehicle: water",99 % of control
